The values below come from ChEMBL document CHEMBL4219259, “Molecular Determinants Conferring the Stoichiometric-Dependent Activity of α-Conotoxins at the Human α9α10 Nicotinic Acetylcholine Receptor Subtype” (J Med Chem, 2018).

Peptide text beside a SMILES is read from it.

This experiment concerns the target Neuronal acetylcholine receptor; alpha9/alpha10 (Homo sapiens, UniProt Q9GZZ6+Q9UGM1). Description: Inhibition of human alpha9/alpha10 nACHR (1:1) expressed in Xenopus laevis oocyte assessed as inhibition of ACh induced channel current measured for 2 to 5 days at -80 mV holding potential by two electrode voltage clamp method. (In general: Two-electrode voltage clamp holds a large cell at a set potential and records current.)

By IC50 is commonly meant the concentration at which inhibition is half-maximal.

Neuronal acetylcholine receptor; alpha9/alpha10, sequence (Q9UGM1 whole entry): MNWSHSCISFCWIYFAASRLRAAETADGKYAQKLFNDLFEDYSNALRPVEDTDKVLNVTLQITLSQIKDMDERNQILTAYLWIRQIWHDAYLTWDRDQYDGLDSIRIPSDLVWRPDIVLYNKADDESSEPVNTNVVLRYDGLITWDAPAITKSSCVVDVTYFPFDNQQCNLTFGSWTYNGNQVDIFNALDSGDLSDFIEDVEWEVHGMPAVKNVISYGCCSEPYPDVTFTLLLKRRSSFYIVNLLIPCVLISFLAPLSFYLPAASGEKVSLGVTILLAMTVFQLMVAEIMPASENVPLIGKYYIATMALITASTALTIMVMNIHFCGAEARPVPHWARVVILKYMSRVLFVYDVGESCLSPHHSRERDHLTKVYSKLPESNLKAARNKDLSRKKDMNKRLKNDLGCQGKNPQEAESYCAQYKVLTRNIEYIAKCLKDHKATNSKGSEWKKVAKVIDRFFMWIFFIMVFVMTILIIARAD
Neuronal acetylcholine receptor; alpha9/alpha10, sequence (Q9GZZ6 whole entry): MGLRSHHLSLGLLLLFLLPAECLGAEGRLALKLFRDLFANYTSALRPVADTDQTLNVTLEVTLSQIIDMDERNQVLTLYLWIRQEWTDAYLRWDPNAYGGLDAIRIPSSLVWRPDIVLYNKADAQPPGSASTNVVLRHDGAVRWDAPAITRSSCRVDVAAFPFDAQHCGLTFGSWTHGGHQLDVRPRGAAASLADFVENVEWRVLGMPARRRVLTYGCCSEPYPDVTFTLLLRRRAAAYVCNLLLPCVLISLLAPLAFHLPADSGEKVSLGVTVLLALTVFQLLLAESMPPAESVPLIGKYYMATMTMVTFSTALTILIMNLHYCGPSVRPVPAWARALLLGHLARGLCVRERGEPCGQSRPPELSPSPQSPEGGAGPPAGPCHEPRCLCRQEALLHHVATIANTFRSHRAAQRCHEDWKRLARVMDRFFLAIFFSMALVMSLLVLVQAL

In the case of `CC(C)[C@@H]1NC(=O)[C@H](CO)NC(=O)[C@@H]2CSSC[C@H](NC(=O)CN)C(=O)N[C@@H](CSSC[C@@H](C(N)=O)NC(=O)[C@H](CCCCN)NC(=O)[C@H](CC(N)=O)NC(=O)[C@@H]3CCCN3C(=O)[C@H](Cc3ncc[nH]3)NC(=O)[C@H](CC(=O)O)NC1=O)C(=O)N[C@@H](CO)C(=O)N[C@@H](Cc1ncc[nH]1)C(=O)N1CCC[C@H]1C(=O)N[C@@H](C)C(=O)N2` (HELM PEPTIDE1{G.C.C.S.[O=C([C@H](Cc1ncc[nH]1)N[*:1])[*:2]].P.A.C.S.V.D.[O=C([C@H](Cc1ncc[nH]1)N[*:1])[*:2]].P.N.K.C.[am]}$PEPTIDE1,PEPTIDE1,2:R3-8:R3|PEPTIDE1,PEPTIDE1,3:R3-16:R3$$$V2.0), the half-maximal inhibitory concentration (IC50) came out at 22.2 µM.
